Assay results published in PubChem BioAssay (NCI).
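Values below derive from 48-hour exposures of cells grown in 96-well plates, with endpoints linearly interpolated between the two concentrations bracketing the appropriate inhibition level. Definition used: TGI = concentration required for complete inhibition of growth.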

Assays:
Assay in all cases: growth of human tumour cells (NCI), 48 h
HCT-15 colon = system: HCT-15 colon
SF-539 CNS = system: SF-539 CNS
SK-MEL-5 melanoma = system: SK-MEL-5 melanoma
LOX IMVI melanoma = system: LOX IMVI melanoma
SN12C renal = system: SN12C renal
MDA-MB-435 = system: MDA-MB-435
M14 melanoma = system: M14 melanoma
NCI-H226 lung = system: NCI-H226 lung
HL-60(TB) leukemia = system: HL-60(TB) leukemia
K-562 leukemia = system: K-562 leukemia
RXF 393 renal = system: RXF 393 renal
NCI-H460 lung = system: NCI-H460 lung
T-47D breast = system: T-47D breast
SNB-19 CNS = system: SNB-19 CNS
SK-MEL-2 melanoma = system: SK-MEL-2 melanoma
OVCAR-5 ovarian = system: OVCAR-5 ovarian
HT29 colon = system: HT29 colon
786-0 renal = system: 786-0 renal
SK-OV-3 ovarian = system: SK-OV-3 ovarian
UO-31 renal = system: UO-31 renal
COLO 205 colon = system: COLO 205 colon
RPMI-8226 leukemia = system: RPMI-8226 leukemia
PC-3 prostate = system: PC-3 prostate
MALME-3M melanoma = system: MALME-3M melanoma
MDA-N = system: MDA-N
UACC-62 melanoma = system: UACC-62 melanoma
KM12 colon = system: KM12 colon
CCRF-CEM leukemia = system: CCRF-CEM leukemia
CAKI-1 renal = system: CAKI-1 renal
EKVX NSCLC = system: EKVX NSCLC
U251 CNS = system: U251 CNS
MDA-MB-231 breast = system: MDA-MB-231 breast
NCI-H522 lung = system: NCI-H522 lung
HS 578T breast = system: HS 578T breast
IGROV1 ovarian = system: IGROV1 ovarian
HCT-116 colon = system: HCT-116 colon
OVCAR-8 ovarian = system: OVCAR-8 ovarian
ACHN renal = system: ACHN renal
NCI-H23 lung = system: NCI-H23 lung
A498 renal = system: A498 renal
HOP-92 NSCLC = system: HOP-92 NSCLC
HOP-62 NSCLC = system: HOP-62 NSCLC
TK-10 renal = system: TK-10 renal
OVCAR-3 ovarian = system: OVCAR-3 ovarian
HCC-2998 colon = system: HCC-2998 colon
MCF7 breast = system: MCF7 breast
BT-549 breast = system: BT-549 breast
SW-620 colon = system: SW-620 colon
SR leukemia = system: SR leukemia
A549 NSCLC = system: A549 NSCLC
SF-295 CNS = system: SF-295 CNS
SF-268 CNS = system: SF-268 CNS
SNB-75 CNS = system: SNB-75 CNS
NCI/ADR-RES ovarian = system: NCI/ADR-RES ovarian
DU-145 prostate = system: DU-145 prostate
UACC-257 melanoma = system: UACC-257 melanoma
MOLT-4 leukemia = system: MOLT-4 leukemia
OVCAR-4 ovarian = system: OVCAR-4 ovarian
SK-MEL-28 melanoma = system: SK-MEL-28 melanoma

Oc1ccc(Nc2nc(Cl)c3[nH]cnc3n2)cc1
TGI (HCT-15 colon): > 100 µM
TGI (SF-539 CNS): > 100 µM
TGI (SK-MEL-5 melanoma): > 100 µM
TGI (LOX IMVI melanoma): > 100 µM
TGI (SN12C renal): > 100 µM
TGI (MDA-MB-435): > 100 µM
TGI (M14 melanoma): > 100 µM
TGI (NCI-H226 lung): > 100 µM
TGI (HL-60(TB) leukemia): > 100 µM
TGI (K-562 leukemia): > 100 µM
TGI (RXF 393 renal): > 100 µM
TGI (NCI-H460 lung): > 100 µM
TGI (T-47D breast): > 100 µM
TGI (SNB-19 CNS): > 100 µM
TGI (SK-MEL-2 melanoma): 87.3 µM
TGI (OVCAR-5 ovarian): > 100 µM
TGI (HT29 colon): > 100 µM
TGI (786-0 renal): > 100 µM
TGI (SK-OV-3 ovarian): > 100 µM
TGI (UO-31 renal): > 100 µM
TGI (COLO 205 colon): > 100 µM
TGI (RPMI-8226 leukemia): > 100 µM
TGI (PC-3 prostate): > 100 µM
TGI (MALME-3M melanoma): > 100 µM
TGI (MDA-N): > 100 µM
TGI (UACC-62 melanoma): > 100 µM
TGI (KM12 colon): > 100 µM
TGI (CCRF-CEM leukemia): > 100 µM
TGI (CAKI-1 renal): > 100 µM
TGI (EKVX NSCLC): > 100 µM
TGI (U251 CNS): > 100 µM
TGI (MDA-MB-231 breast): > 100 µM
TGI (NCI-H522 lung): > 100 µM
TGI (HS 578T breast): > 100 µM
TGI (IGROV1 ovarian): > 100 µM
TGI (HCT-116 colon): > 100 µM
TGI (OVCAR-8 ovarian): > 100 µM
TGI (ACHN renal): > 100 µM
TGI (NCI-H23 lung): > 100 µM
TGI (A498 renal): > 100 µM
TGI (HOP-92 NSCLC): 38.2 µM
TGI (HOP-62 NSCLC): > 100 µM
TGI (TK-10 renal): > 100 µM
TGI (OVCAR-3 ovarian): > 100 µM
TGI (HCC-2998 colon): > 100 µM
TGI (MCF7 breast): > 100 µM
TGI (BT-549 breast): > 100 µM
TGI (SW-620 colon): > 100 µM
TGI (SR leukemia): > 100 µM
TGI (A549 NSCLC): > 100 µM
TGI (SF-295 CNS): > 100 µM
TGI (SF-268 CNS): > 100 µM
TGI (SNB-75 CNS): > 100 µM
TGI (NCI/ADR-RES ovarian): > 100 µM
TGI (DU-145 prostate): > 100 µM
TGI (UACC-257 melanoma): > 100 µM
TGI (MOLT-4 leukemia): > 100 µM
TGI (OVCAR-4 ovarian): > 100 µM

O=C(O)c1c(CC(Cc2ccccc2)C(=O)O)ccc2c1CCC2 (stereo unspecified)
TGI (HCT-15 colon): > 100 µM
TGI (SF-539 CNS): > 100 µM
TGI (SK-MEL-5 melanoma): > 100 µM
TGI (LOX IMVI melanoma): > 100 µM
TGI (SN12C renal): > 100 µM
TGI (MDA-MB-435): > 100 µM
TGI (NCI-H226 lung): > 100 µM
TGI (HL-60(TB) leukemia): > 100 µM
TGI (K-562 leukemia): > 100 µM
TGI (RXF 393 renal): > 100 µM
TGI (NCI-H460 lung): > 100 µM
TGI (T-47D breast): > 100 µM
TGI (SNB-19 CNS): > 100 µM
TGI (SK-MEL-2 melanoma): > 100 µM
TGI (OVCAR-5 ovarian): > 100 µM
TGI (HT29 colon): > 100 µM
TGI (786-0 renal): > 100 µM
TGI (SK-OV-3 ovarian): > 100 µM
TGI (UO-31 renal): > 100 µM
TGI (COLO 205 colon): > 100 µM
TGI (RPMI-8226 leukemia): > 100 µM
TGI (PC-3 prostate): > 100 µM
TGI (MALME-3M melanoma): > 100 µM
TGI (MDA-N): > 100 µM
TGI (UACC-62 melanoma): > 100 µM
TGI (KM12 colon): > 100 µM
TGI (CCRF-CEM leukemia): > 100 µM
TGI (CAKI-1 renal): > 100 µM
TGI (EKVX NSCLC): > 100 µM
TGI (U251 CNS): > 100 µM
TGI (MDA-MB-231 breast): > 100 µM
TGI (NCI-H522 lung): > 100 µM
TGI (HS 578T breast): > 100 µM
TGI (IGROV1 ovarian): > 100 µM
TGI (HCT-116 colon): > 100 µM
TGI (OVCAR-8 ovarian): > 100 µM
TGI (ACHN renal): > 100 µM
TGI (NCI-H23 lung): > 100 µM
TGI (A498 renal): > 100 µM
TGI (HOP-92 NSCLC): > 100 µM
TGI (HOP-62 NSCLC): > 100 µM
TGI (TK-10 renal): > 100 µM
TGI (OVCAR-3 ovarian): > 100 µM
TGI (HCC-2998 colon): > 100 µM
TGI (MCF7 breast): > 100 µM
TGI (BT-549 breast): > 100 µM
TGI (SW-620 colon): > 100 µM
TGI (SK-MEL-28 melanoma): > 100 µM
TGI (SR leukemia): > 100 µM
TGI (A549 NSCLC): > 100 µM
TGI (SF-295 CNS): > 100 µM
TGI (SF-268 CNS): > 100 µM
TGI (SNB-75 CNS): > 100 µM
TGI (NCI/ADR-RES ovarian): > 100 µM
TGI (DU-145 prostate): > 100 µM
TGI (UACC-257 melanoma): > 100 µM
TGI (MOLT-4 leukemia): > 100 µM
TGI (OVCAR-4 ovarian): > 100 µM
